Test results reported in paper PMC6572064, “Discovery of 2-(1-(3-(4-Chloroxyphenyl)-3-oxo- propyl)pyrrolidine-3-yl)-1H-benzo[d]imidazole-4-carboxamide: A Potent Poly(ADP-ribose) Polymerase (PARP) Inhibitor for Treatment of Cancer” (Molecules, 2019).
Like-named read-outs stand apart in the source and are kept apart here.

Tests used:
[1] = tested on: CAPAN-1 (a BRCA-2-mutated pancreatic cancer cell line); test: Cell proliferation assay, three-day, CellTiter-Glo, CAPAN-1; format: cell-based; details: for inhibition at 0.00508 µM: CAPAN-1, 0.00508 uM; for inhibition at 0.0152 µM: CAPAN-1, 0.0152 uM; for inhibition at 0.0457 µM: CAPAN-1, 0.0457 uM; for inhibition at […]: CAPAN-1, 0.14 uM; for inhibition at 0.41 µM: CAPAN-1, 0.41 uM; for inhibition at 1.23 µM: CAPAN-1, 1.23 uM; for inhibition at 3.7 µM: CAPAN-1, 3.70 uM; for inhibition at 11.11 µM: CAPAN-1, 11.11 uM; for inhibition at 33.33 µM: CAPAN-1, 33.33 uM; for inhibition at 100 µM: CAPAN-1, 100.00 uM
Protocol: (§1) A three-day assay was conducted. A cell suspension was prepared. Cell density was counted by an automated cell counter and then diluted to the required density, according to seeding density. 50 μL cells were seeded into 384-well plate in growth medium according to the plate map. The cells were incubated at 37 °C, 5% CO2 overnight.
(§2) 200× compound solution in DMSO was prepared and diluted with growth medium to 26× final concentration by addition of 26 μL 200× compounds to 174 μL growth medium. Then 2 μL of diluted compound solution was added to cells and the cell was incubated at 37 °C, 5% CO2 for 72 h.
(§3) The assay plate was equilibrated to room temperature prior to measurement. 15 μL of CellTiter-Glo Reagent was added into each well and the contents were mixed for 2 min on an orbital shaker to induce cell lysis. The cells were incubated at room temperature for 60 min to stabilize luminescent signal. Luminescence was recorded on the Envision system.

[2] = tested on: MDA-MB-436 (a BRCA-1-mutated breast cancer cell line); test: Cell proliferation assay, three-day, CellTiter-Glo, MDA-MB-436; format: cell-based; details: for inhibition at 0.00508 µM / inhibition at 0.0152 µM / inhibition at 0.0457 µM / inhibition at 0.41 µM / inhibition at 1.23 µM / inhibition at 3.7 µM / inhibition at 11.11 µM / inhibition at 33.33 µM / inhibition at 100 µM / IC50: Homo sapiens; for inhibition at 0.00508 µM: MDA-MB-436, MDA-MB-436, Conc. 0.00508 uM; for inhibition at 0.0152 µM: MDA-MB-436, MDA-MB-436, Conc. 0.0152 uM; for inhibition at 0.0457 µM: MDA-MB-436, MDA-MB-436, Conc. 0.0457 uM; for inhibition at 0.41 µM: MDA-MB-436, MDA-MB-436, Conc. 0.41 uM; for inhibition at 1.23 µM: MDA-MB-436, MDA-MB-436, Conc. 1.23 uM; for inhibition at 3.7 µM: MDA-MB-436, MDA-MB-436, Conc. 3.70 uM; for inhibition at 11.11 µM: MDA-MB-436, MDA-MB-436, Conc. 11.11 uM; for inhibition at 33.33 µM: MDA-MB-436, MDA-MB-436, Conc. 33.33 uM; for inhibition at 100 µM: MDA-MB-436, MDA-MB-436, Conc. 100.00 uM
Protocol: as §1, §2, §3

PARP-1 = biological target: T1, PARP-1 (Homo sapiens, UniProt P09874); test: PARP-1 inhibition assay (PARP-1 Chemiluminescent Assay Kit, BPS Bioscience); format: biochemical; details: 10 nM compound
T1 construct: purchased BPS Bioscience 80569
Protocol: (§4) The PARP-1 and PARP-2 inhibition assays were performed in outsourcing, by a CRO company, Shanghai Medicilon Inc. (Shanghai, China). […] Briefly, PARP-1 or PARP-2 biotinylated substrate was incubated with compounds or solvent control at varying concentrations and an assay buffer containing the PARP-1 or PARP-2 enzyme.

PARP-2 = biological target: T2, PARP-2 (Homo sapiens, UniProt Q9UGN5); test: PARP-2 inhibition assay (PARP-2 Chemiluminescent Assay Kit, BPS Bioscience); format: biochemical; details: 10 nM compound
T2 construct: purchased BPS Bioscience 80552
Protocol: as §4

[3] = Homo sapiens, replicate 1, read-out: Inh % 1
[4] = Homo sapiens, replicate 2, read-out: Inh % 2

T2 sequence (Q9UGN5 whole entry): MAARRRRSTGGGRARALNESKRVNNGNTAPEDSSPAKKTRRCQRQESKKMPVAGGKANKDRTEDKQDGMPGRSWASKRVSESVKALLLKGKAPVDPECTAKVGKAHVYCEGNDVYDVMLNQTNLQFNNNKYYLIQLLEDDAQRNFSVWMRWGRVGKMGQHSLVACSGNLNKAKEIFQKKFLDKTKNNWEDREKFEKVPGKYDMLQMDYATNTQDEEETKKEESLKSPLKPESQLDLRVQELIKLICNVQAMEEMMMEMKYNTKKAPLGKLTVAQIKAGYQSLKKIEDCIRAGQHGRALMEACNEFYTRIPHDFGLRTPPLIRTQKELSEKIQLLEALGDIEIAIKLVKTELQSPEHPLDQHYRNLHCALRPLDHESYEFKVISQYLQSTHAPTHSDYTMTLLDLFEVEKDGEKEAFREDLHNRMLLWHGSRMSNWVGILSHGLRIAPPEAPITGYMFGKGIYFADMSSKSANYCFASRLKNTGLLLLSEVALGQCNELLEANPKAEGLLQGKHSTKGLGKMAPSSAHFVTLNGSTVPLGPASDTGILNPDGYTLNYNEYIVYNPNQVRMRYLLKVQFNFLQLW
T1 sequence (P09874 whole entry): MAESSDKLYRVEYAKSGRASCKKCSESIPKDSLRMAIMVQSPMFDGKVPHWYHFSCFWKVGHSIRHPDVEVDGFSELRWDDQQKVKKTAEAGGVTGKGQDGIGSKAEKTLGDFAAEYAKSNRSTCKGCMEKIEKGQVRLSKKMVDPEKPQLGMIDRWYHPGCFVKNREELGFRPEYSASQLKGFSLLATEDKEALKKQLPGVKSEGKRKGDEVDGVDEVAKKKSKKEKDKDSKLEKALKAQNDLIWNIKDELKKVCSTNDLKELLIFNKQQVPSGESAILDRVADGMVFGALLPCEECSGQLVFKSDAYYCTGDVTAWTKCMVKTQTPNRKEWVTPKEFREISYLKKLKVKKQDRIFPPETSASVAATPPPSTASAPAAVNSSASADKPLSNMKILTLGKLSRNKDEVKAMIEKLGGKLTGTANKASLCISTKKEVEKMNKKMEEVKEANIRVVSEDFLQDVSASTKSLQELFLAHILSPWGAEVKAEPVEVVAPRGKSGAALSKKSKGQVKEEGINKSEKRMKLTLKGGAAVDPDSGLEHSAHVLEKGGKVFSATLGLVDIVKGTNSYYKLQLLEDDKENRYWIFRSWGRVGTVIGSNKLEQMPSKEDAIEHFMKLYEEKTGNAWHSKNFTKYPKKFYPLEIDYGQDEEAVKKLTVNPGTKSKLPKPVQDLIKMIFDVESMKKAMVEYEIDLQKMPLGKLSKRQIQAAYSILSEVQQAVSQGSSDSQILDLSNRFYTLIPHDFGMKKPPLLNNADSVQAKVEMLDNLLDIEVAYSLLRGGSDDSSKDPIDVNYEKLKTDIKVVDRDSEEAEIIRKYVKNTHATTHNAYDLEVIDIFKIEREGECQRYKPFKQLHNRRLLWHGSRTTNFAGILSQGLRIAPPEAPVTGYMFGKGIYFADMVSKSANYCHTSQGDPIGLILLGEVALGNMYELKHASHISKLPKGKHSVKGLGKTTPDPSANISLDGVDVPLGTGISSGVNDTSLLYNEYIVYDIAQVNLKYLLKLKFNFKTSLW

IC50 ([1]; Homo sapiens, CAPAN-1, 72 h, CellTiter-Glo, read-out: CAPAN-1 IC50): > 100 µM
IC50 ([2]; MDA-MB-436, 72 h, CellTiter-Glo, read-out: MDA-MB-436 IC50): 90.4 µM
IC50 ([2]; MDA-MB-436, 72 h, supplement Summary sheet, read-out: IC50): 90.4 µM
IC50 ([2]; MDA-MB-436, curve fit list, no unit in the cell, concentration in uM, read-out: IC50): 90.4 µM
inhibition at 0.01 µM (PARP-1; supplement sheet, read-out: 10 nM inhibition% PAPR-1): 19.9%
inhibition at 0.01 µM (PARP-1; read-out: PARP-1 Inhibition % (10 nM)): 19.9%
inhibition at 0.01 µM (PARP-2; supplement sheet, read-out: 10 nM inhibition% PAPR-2): 41.2%
inhibition at 0.01 µM (PARP-2; read-out: PARP-2 Inhibition % (10 nM)): 41.2%
Structure (SMILES): NC(=O)c1cccc2[nH]c(C3CCN(CCC(=O)Nc4ccccc4)C3)nc12 (centres unmarked) [Compound 5cb, 2-(1-(3-Oxo-3-(Phenylamino)propyl)pyrrolidin-3-yl)-1H-benzo[d]imidazole-4-carboxamide]
LogIC50 ([1]; CAPAN-1, curve-fit output, Log (uM)): 2.189
inhibition at 0.00508 µM [1, 3]: -8%
inhibition at 0.00508 µM [1, 4]: 3.3%
inhibition at 0.0152 µM [1, 3]: 3.4%
inhibition at 0.0152 µM [1, 4]: 17%
inhibition at 0.0457 µM [1, 3]: -4.1%
inhibition at 0.0457 µM [1, 4]: 5.6%
inhibition at […] [1, 3]: -2%
inhibition at […] [1, 4]: 2.2%
inhibition at 0.41 µM [1, 3]: 10.3%
inhibition at 0.41 µM [1, 4]: 6.1%
inhibition at 1.23 µM [1, 3]: 12.4%
inhibition at 1.23 µM [1, 4]: -0.64%
inhibition at 3.7 µM [1, 3]: 11.2%
inhibition at 3.7 µM [1, 4]: 9.9%
inhibition at 11.11 µM [1, 3]: 5%
inhibition at 11.11 µM [1, 4]: -4.1%
inhibition at 33.33 µM [1, 3]: 3.6%
inhibition at 33.33 µM [1, 4]: 21.6%
inhibition at 100 µM [1, 3]: 39.1%
inhibition at 100 µM [1, 4]: 32%
inhibition at 0.00508 µM ([2]; replicate 1, read-out: Inh % 1): 0.0167%
inhibition at 0.00508 µM ([2]; replicate 2, read-out: Inh % 2): -6.8%
inhibition at 0.0152 µM ([2]; replicate 1, read-out: Inh % 1): -5.6%
inhibition at 0.0152 µM ([2]; replicate 2, read-out: Inh % 2): -10.5%
inhibition at 0.0457 µM ([2]; replicate 1, read-out: Inh % 1): -12.9%
inhibition at 0.0457 µM ([2]; replicate 2, read-out: Inh % 2): -11.3%
inhibition at 0.41 µM ([2]; replicate 1, read-out: Inh % 1): -10%
inhibition at 0.41 µM ([2]; replicate 2, read-out: Inh % 2): -14%
inhibition at 1.23 µM ([2]; replicate 1, read-out: Inh % 1): -9.6%
inhibition at 1.23 µM ([2]; replicate 2, read-out: Inh % 2): -14.7%
inhibition at 3.7 µM ([2]; replicate 1, read-out: Inh % 1): -9.8%
inhibition at 3.7 µM ([2]; replicate 2, read-out: Inh % 2): -10.5%
inhibition at 11.11 µM ([2]; replicate 1, read-out: Inh % 1): -2.5%
inhibition at 11.11 µM ([2]; replicate 2, read-out: Inh % 2): -1.6%
inhibition at 33.33 µM ([2]; replicate 1, read-out: Inh % 1): 9.7%
inhibition at 33.33 µM ([2]; replicate 2, read-out: Inh % 2): 9.8%
inhibition at 100 µM ([2]; replicate 1, read-out: Inh % 1): 58.3%
inhibition at 100 µM ([2]; replicate 2, read-out: Inh % 2): 40%
LogIC50 ([2]; MDA-MB-436, curve fit on Log (uM) concentrations): 1.956
Bottom ([2]; MDA-MB-436, curve fit parameter (Inh %)): -10.26
Top ([2]; MDA-MB-436, curve fit parameter (Inh %), '= 100.0' is a constrained value): = 100.0
